In brackets after ≈: the same amount, converted by molar mass. Like-named read-outs stand apart in the source and are kept apart here.
Legend:
RN4220/pYH4-fabI = assay: MIC of triclosan against S. aureus RN4220 carrying the fabI ORF clone, with and without inducer; type: cell-based; settings: Staphylococcus aureus, strain RN4220/pYH4-fabI, read-out: MIC concentration of triclosan necessary to inhibit the strain
Description: This confirms that FabI is a target of triclosan.
(§1) The pYH4 expression vector was used to clone the FabI ORF and it served as a control for the experiment.

RN4220/pYH4 = assay: MIC against S. aureus RN4220 carrying empty expression vector pYH4 (control), with and without inducer; type: cell-based
Protocol: as §1
(§2) The murA1 ORF is cloned into the pYH4 expression vector, the features of which are described above, and the anhydrotetracycline inducer is added to a sample containing the murA1 ORF. In addition, a control sample containing only the vector is induced and the MICs of the induced and uninduced vector are determined. […] This confirms that murA1 is a target of phosphomycin.
as §2, with “metRS” for “murA1”, “ORF. The MICs for the anitmicrobial compound of induced and uninduced samples are determined.” for “ORF.”, “the exemplified antimicrobial compound.” for “phosphomycin.”

[1] = test system: RN4220/pYH4 and RN4220/pYH4-fabI mixed in the ratio of 100:1; assay: Selection of triclosan resistant colonies on TSA plates from a mixed culture; type: cell-based, S. aureus; settings: approximately 1,000 bacterial cells plated
Protocol: In the experiment, a S. aureus strain with expression vector (RN4220/pYH4) was combined with the expression vector and FabI open reading frame (RN4220/pYH4-fabI) in the ratio of 100:1. Then, approximately 1,000 bacterial cells of this mixture were plated onto TSA plates containing: (1) no triclosan (-triclosan); (2) 0.25 μg/ml of triclosan; and (3) 0.25 μg/ml of triclosan plus 0.4 μg/ml anhydrotetracycline inducer. […] The third plate was indicative of FabI-containing clones which are confirmed to be targets of the triclosan antimicrobial compound.

RN4220/pYH4MurA1 = assay: MIC of phosphomycin against S. aureus RN4220 carrying the murA1 ORF clone, with and without inducer; type: cell-based
Protocol: as §2

Row | Structure (SMILES) | MIC (RN4220/pYH4-fabI; +inducer) [µg/mL] | MIC (RN4220/pYH4-fabI; −inducer) [µg/mL] | MIC (RN4220/pYH4; Staphylococcus aureus, strain RN4220/pYH4, −inducer, read-out: MIC concentration of triclosan necessary to inhibit the strain) [µg/mL] | MIC concentration of triclosan necessary to inhibit the strain (RN4220/pYH4; strain RN4220/pYH4, +inducer) [µg/mL] | colonies grown on TSA plate ([1]; 0.25 μg/ml triclosan plus 0.4 μg/ml anhydrotetracycline inducer) [colonies] | colonies grown on TSA plate ([1]; 0.25 μg/ml triclosan, no inducer) | MIC of the induced murA1 gene relative to the uninduced vector alone (RN4220/pYH4MurA1; induced murA1 clone vs uninduced vector) [fold] | MIC of phosphomycin (RN4220/pYH4MurA1; strain RN4220/pYH4MurA1, +ATc) [µg/mL] | MIC of phosphomycin (RN4220/pYH4MurA1; strain RN4220/pYH4MurA1, −Atc) [µg/mL] | MIC of the uninduced murA1 gene relative to the uninduced vector alone (RN4220/pYH4MurA1; uninduced murA1 clone vs uninduced vector) [fold] | MIC of phosphomycin (RN4220/pYH4; strain RN4220/pYH4, +ATc) [µg/mL] | MIC of phosphomycin (RN4220/pYH4; strain RN4220/pYH4, −Atc) [µg/mL]
1 | Oc1cc(Cl)ccc1Oc1ccc(Cl)cc1Cl [triclosan] | 1 | 0.0625 | 0.0625 (≈ 0.216 µM) | 0.0625 | 15 | no colonies grew | – | – | – | – | – | –
2 | C[C@@H]1O[C@@H]1P(=O)(O)O [phosphomycin] | – | – | – | – | – | – | 64 | 256 | 32 | 8 | 2 | 4
